What was measured:
Type in all cases: in vivo
Gala apple [1] = experiment: Thinning study of Gala apple (Washington), chemical thinning followed by hand thinning, Example 4; conditions: in combination with 6-benzyladenine 28 g/acre; 300 ppm derivative vs 1000 ppm S-ABA
Procedure: Another thinning study of Gala apple was carried out in Washington using a procedure of chemical thinning followed by hand thinning. For chemical thinning, trees (size matched across all the treatment groups) were sprayed with 6-benzyladenine combined with S-ABA or S-ABA derivatives at about the 10 mm fruit diameter timing, as described in Example 1. After a period known as “June drop,” the trees were further thinned by hand to achieve the essentially identical fruit load that was deemed to be the appropriate crop load. This practice will ensure a uni-size apple crop. With this protocol, a lower requirement for the number of fruits removed by hand indicates a more efficacious chemical thinning treatment.

Gala apple [2] = experiment: Thinning study of Gala apple (Michigan), repeat, Example 3
Excerpt: In a study carried out in Michigan, 3'-methyl-(S)-abscisic acid was mixed with 6-benzyladenine and compared with a mixture of S-ABA and 6-benzyladenine. 3'-Methyl-(S)-abscisic acid was formulated as a potassium salt in an aqueous. S-ABA was formulated as potassium salt in an aqueous formulation. […]®, a 2% (w/w) 6-benzyladenine formulation, was used as the source of 6-benzyladenine (“6-BA” in the following tables). The treatments were applied to McIntosh apple in fields when the fruit reached 10 mm in size. Six single tree replicates were sprayed with the equivalent of 100 gallons per acre using a motorized backpack mist blower. All the trees in the study were matched to about the same size and initial cropload. The fruit was harvested at maturity and the average fruit weights for each treatment group were recorded. The results are shown in Table 1 (the lower the number of fruits, the greater the thinning effect of the treatment). The thinning study of Gala apple was repeated in Gala in Michigan following the same protocol described in Example 1. In addition to S-ABA and 3'methyl-(S)-ABA, 3'-propargyl-(S)-ABA was also tested for this effect.

Rich Lady peach = experiment: Thinning study on Rich Lady peach (Yakima, Washington), Example 5; conditions: for Effect on fruit size (percent fruit 125 count/box or larger), in words / Effect on hand thinning required / fruit drop, in words: 30-300 ppm 3′-methyl-(S)-abscisic acid, 300-1000 ppm S-ABA; for Harvest percent fruit 125 ct/box or larger / Number hand thinned per tree: 0.05% Regulaid surfactant; for Number hand thinned per tree: hand thinned after fruit drop period
Procedure: A study was conducted in Washington (Yakima, Wash.) to determine the effect of S-ABA and 3′-methyl-(S)-abscisic acid on Rich Lady peach thinning. In this study, the initial fruit set prior to treatment was relatively uniform across the treatment groups with the exception of the 300 ppm 3′-methyl-(S)-abscisic acid treatment that had lower fruit set. Following the treatments and a period of time for fruit to drop, the trees were hand-thinned to achieve a desired commercially optimal fruit load.

McIntosh apple = experiment: Thinning study of McIntosh apple (Michigan), Example 1; conditions: in combination with 6-benzyladenine 28 g/acre; 100 ppm derivative vs 1000 ppm S-ABA
Excerpt: In a study carried out in Michigan, 3'-methyl-(S)-abscisic acid was mixed with 6-benzyladenine and compared with a mixture of S-ABA and 6-benzyladenine. 3'-Methyl-(S)-abscisic acid was formulated as a potassium salt in an aqueous. S-ABA was formulated as potassium salt in an aqueous formulation. […]®, a 2% (w/w) 6-benzyladenine formulation, was used as the source of 6-benzyladenine (“6-BA” in the following tables). The treatments were applied to McIntosh apple in fields when the fruit reached 10 mm in size. Six single tree replicates were sprayed with the equivalent of 100 gallons per acre using a motorized backpack mist blower. All the trees in the study were matched to about the same size and initial cropload. The fruit was harvested at maturity and the average fruit weights for each treatment group were recorded. The results are shown in Table 1 (the lower the number of fruits, the greater the thinning effect of the treatment).

Gala apple [3] = experiment: Thinning study of Gala apple (Michigan), Example 2; conditions: in combination with 6-benzyladenine 28 g/acre
Excerpt: In a study carried out in Michigan, 3'-methyl-(S)-abscisic acid was mixed with 6-benzyladenine and compared with a mixture of S-ABA and 6-benzyladenine. 3'-Methyl-(S)-abscisic acid was formulated as a potassium salt in an aqueous. S-ABA was formulated as potassium salt in an aqueous formulation. […]®, a 2% (w/w) 6-benzyladenine formulation, was used as the source of 6-benzyladenine (“6-BA” in the following tables). The treatments were applied to McIntosh apple in fields when the fruit reached 10 mm in size. Six single tree replicates were sprayed with the equivalent of 100 gallons per acre using a motorized backpack mist blower. All the trees in the study were matched to about the same size and initial cropload. The fruit was harvested at maturity and the average fruit weights for each treatment group were recorded. The results are shown in Table 1 (the lower the number of fruits, the greater the thinning effect of the treatment). A further study was carried out in Michigan, following the same protocol as described in Example 1.

Compound | Thinning potency relative to S-ABA (in words) (Gala apple [1]) | Thinning effect, in words (Gala apple [2]; in combination with 6-benzyladenine) | Effect on fruit size (percent fruit 125 count/box or larger), in words (Rich Lady peach) | Effect on hand thinning required / fruit drop, in words (Rich Lady peach) | Harvest percent fruit 125 ct/box or larger (Rich Lady peach; 300 ppm) [%] | Number hand thinned per tree (Rich Lady peach; 300 ppm) [per tree] | Harvest percent fruit 125 ct/box or larger (Rich Lady peach; 1000 ppm) [%] | Number hand thinned per tree (Rich Lady peach; 1000 ppm) [per tree] | Thinning potency relative to S-ABA (McIntosh apple) | Thinning potency relative to S-ABA (in words) (Gala apple [3]) | Harvest percent fruit 125 ct/box or larger (Rich Lady peach; 30 ppm) [%] | Number hand thinned per tree (Rich Lady peach; 30 ppm) [per tree] | Harvest percent fruit 125 ct/box or larger (Rich Lady peach; 100 ppm) [%] | Number hand thinned per tree (Rich Lady peach; 100 ppm) [per tree] | Thinning potency relative to S-ABA (in words) (Gala apple [2]; in combination with 6-benzyladenine 28 g/acre, 100 ppm derivative vs 300 ppm S-ABA)
C#CCC1=C(C)[C@](O)(/C=C/C(C)=C\C(=O)O)C(C)(C)CC1=O [3′-propargyl-(S)-ABA, (2Z,4E)-5-((S)-1-hydroxy-2,6,6-trimethyl-4-oxo-3-(prop-2-yn-1-yl)cyclohex-2-en-1-yl)-3-methylpenta-2,4-dienoic acid] | about three times more potent than S-ABA | caused significant thinning | – | – | – | – | – | – | – | – | – | – | – | – | –
CC1=CC(=O)CC(C)(C)[C@@]1(O)/C=C/C(C)=C/C(=O)O [S-ABA, (S)-abscisic acid] | – | – | small increase in the fruit size in a dose dependent manner | did not reduce the hand thinning required | 27.6 | 61.2 | 29.7 | 67.8 | – | – | – | – | – | – | –
CC1=C(C)[C@](O)(/C=C/C(C)=C\C(=O)O)C(C)(C)CC1=O [3′-methyl-(S)-ABA, (2Z,4E)-5-((S)-1-hydroxy-2,3,6,6-tetramethyl-4-oxocyclohex-2-en-1-yl)-3-methylpenta-2,4-dienoic acid] | about three times more potent than S-ABA | – | increases with higher use rate | caused fruit drop (thinning) | 37.6 | 45.4 | – | – | about 10 times | more potent than S-ABA | 25.0 | 61.8 | 30.2 | 59.2 | about three times more potent than S-ABA

Source: patent US9872492B2, “(S)-abscisic acid derivatives for thinning” (Valent BioSciences Corporation, priority 2015, dated 2018)
